Experimental findings from patent publication US9284580B2 (priority 2010, dated 2016) are described below.

In one experiment the test system is AckKO(pMAD22). The experiment in a line: Batch fermentation in serum bottles with a hydrogenase inhibitor. Format: cell-based, Clostridium tyrobutyricum. The settings on record: hydrogenase inhibitor added to fermentation.
In another experiment the test system is C. tyrobutyricum mutants. From the text: Cell growth was monitored by measuring the optical density at 600 nm (OD600) of the culture broth.

Where two headings read alike, the source gives them in different places.

For `C[n+]1ccc(-c2cc[n+](C)cc2)cc1` [methyl viologen], the “effect on acids and butanol production from glucose” value in the experiment on AckKO(pMAD22) was “significantly decreased acids production and enhanced butanol production from glucose”.

Consider `Cc1cc2nc3ccc(N(C)C)cc3nc2cc1N.Cl` [neutral red], for which, in the experiment on AckKO(pMAD22), the “effect on acids and butanol production from glucose” value was “significantly decreased acids production and enhanced butanol production from glucose”.

Consider butanol, for which, in the experiment with C. tyrobutyricum mutants (0.5% (v/v) butanol in RCM medium, strains studied), the “effect on cell growth” value was “does not have any apparent effect on cell growth”. Besides, the cell growth entry with C. tyrobutyricum mutants (2.0% (v/v) butanol, all strains started to grow after 2 days) is “no significant cell growth was observed for the first 24 hours”. Besides, the tolerated butanol concentration entry in the experiment with C. tyrobutyricum mutants (after adaptation) was “up to 2.0 % (v/v)”; with C. tyrobutyricum mutants (without adaptation) it was “up to 1.5 % (v/v)”.
